# Source: PubChem BioAssay AID1963840 (Molecular Pharmacology Branch, DTP, NCI, 2024)
# Values joined by “and” are separate entries in the source; they are usually repeats but may differ in a detail not shown here. Identical values can stand only once.
# Tested on: 695427-040-R-J1-PDC complex spheroid viability
# Assay: Anticancer human tumor 695427-040-R-J1-PDC patient-derived colon adenocarcinoma cell line growth inhibition [POLQ]
# Conditions: for viability, T/C: stronger effect = lower value
# Procedure: Multicellular complex tumor spheroid response to Polymerase (POL) inhibitors (novobiocin, ART-558, RP6685) in combination with a variety of drugs and investigational agents in selected tumor cell lines
# The POL inhibitors (novobiocin, ART-558, and RP6685) were evaluated both individually and in combination with standard of care and investigational anticancer small molecules within a complex spheroid model of solid tumors. . Complex spheroids include a stromal component modeled by human endothelial cells (HUVEC) and fibroblasts modeled by human mesenchymal stem cells (MSCs). The concentration ranges selected for each drug and investigational agent were based upon clinically achievable concentrations if the clinical Cmax of the agent was known.
# Compounds. The drugs and investigational agents: novobiocin (NSC847541), ART-558 (NSC835418), RP-6685 (NSC848927), peposertib (NSC802822), ceralasertib (NSC780249), elimusertib (NSC800525), camonsertib (NSC841442), AZD-1390 (NSC803789), olaparib (NSC753686), talazoparib (NSC767125), rucaparib (NSC756644), sotorasib (NSC818433), MRTX-1133 (NSC836407), SN-38 (NSC673596), topotecan (NSC609699), epotoside (NSC141540), doxorubicin (NSC123127), gemcitabine (NSC613327), 5-fluorouracil (NSC19893), paclitaxel (NSC125973), vemurafenib (NSC761431), MSA-2 (NSC828583), SN-011 (NSC837082), adavosertib (NSC754352), prexasertib (NSC758257), carboplatin (NSC241240) and oxaliplatin (NSC266046), were obtained from the National Cancer Institute (NCI) Developmental Therapeutics Program Chemical Repository (21). The FDA-approved anticancer drug set is available from the Developmental Therapeutics Program at https://dtp.cancer.gov/organization/dscb/obtaining/. […] The stock solutions were prepared in dimethyl sulfoxide (DMSO, Sigma-Aldrich, St. Louis, MO, cat. D2650), except for the platinum compounds which were prepared in saline (Quality Biological, Gaithersburg, MD, cat. 114-055-101), at 800-fold the tested concentration and stored at -70 degrees C prior to their use. All drugs and investigational agents were tested over a range starting from a high concentration at or near the clinical Cmax and decreasing in half-log increments. If the clinical Cmax for an agent had not been determined, the highest concentration tested was 10 microM, except for SN-38, which was tested at a high concentration of 1 microM.
# Cell Culture. All cells were maintained in an incubator at 37 degrees C and 5% CO2 with 95% humidity. The PDC lines were cultured according to standard operating procedures established by the NCI PDMR (https://pdmr.cancer.gov). Table 3 of the manuscript, lists the cell lines along with the number of the three cell types plated to form the mct-spheroids and media for tumor cell growth. After thawing, all PDC lines, except 997537-175-T-J1-PDC and 415267-285-R-J2-PDC, were cultured in Matrigel-coated flasks prepared with a working solution of 1X Ham's F-12 nutrient mix, without supplementation (Thermo Fisher Scientific, cat. 11765054), 100 U/mL penicillin-streptomycin (Thermo Fisher Scientific, cat. 15140122), and 2.5% Matrigel (Corning Inc., Corning, NY, cat. 354248) for the first three passages. The two PDC lines 997537-175-T-J1-PDC and 415267-285-R-J2-PDC were cultured on uncoated flasks. The 857933-349-R-J2-PDC line was cultured in 6C/Colon 1B media containing advanced DMEM/F-12 (Thermo Fisher Scientific, cat. 12634028), 10 mM HEPES (Thermo Fisher Scientific, cat. 15630080), 1X GlutaMAX supplement (Thermo Fisher Scientific, cat. 35050061), 0.1 mg/mL primocin (InvivoGen, San Diego, CA, cat. ant-pm-2), 10% defined fetal bovine serum, heat inactivated (HyClone Laboratories Inc., Logan, UT, cat. SH30070.03HI), 50% L-WRN conditioned media (ATCC, cat. CRL-3276), 1.25 mM N-Acetyl-L-cysteine (Sigma-Aldrich, cat. A9165), 10 mM nicotinamide (Sigma-Aldrich, cat. N0636), 1X B-27 supplement (Thermo Fisher Scientific, cat. 17504044), 1X N-2 supplement (Thermo Fisher Scientific, cat. […]
# [1] = curve of first compound, second compound 0.0316 µM
# [2] = curve of first compound, second compound 0.1 µM
# [3] = curve of first compound, second compound 0.316 µM
# [4] = curve of first compound, second compound 1 µM
# [5] = curve of first compound, second compound 3.16 µM
# [6] = curve of first compound, second compound 10 µM
# [7] = second compound 0.0316 µM, first compound 0.0316 µM
# [8] = second compound 0.0316 µM, first compound 0.1 µM
# [9] = second compound 0.0316 µM, first compound 0.316 µM
# [10] = second compound 0.0316 µM, first compound 1 µM
# [11] = second compound 0.1 µM, first compound 0.0316 µM
# [12] = second compound 0.1 µM, first compound 0.1 µM
# [13] = second compound 0.1 µM, first compound 0.316 µM
# [14] = second compound 0.1 µM, first compound 1 µM
# [15] = second compound 0.316 µM, first compound 0.0316 µM
# [16] = second compound 0.316 µM, first compound 0.1 µM
# [17] = second compound 0.316 µM, first compound 0.316 µM
# [18] = second compound 0.316 µM, first compound 1 µM
# [19] = second compound 1 µM, first compound 0.0316 µM
# [20] = second compound 1 µM, first compound 0.1 µM
# [21] = second compound 1 µM, first compound 0.316 µM
# [22] = second compound 1 µM, first compound 1 µM
# [23] = second compound 3.16 µM, first compound 0.0316 µM
# [24] = second compound 3.16 µM, first compound 0.1 µM
# [25] = second compound 3.16 µM, first compound 0.316 µM
# [26] = second compound 3.16 µM, first compound 1 µM
# [27] = second compound 10 µM, first compound 0.0316 µM
# [28] = second compound 10 µM, first compound 0.1 µM
# [29] = second compound 10 µM, first compound 0.316 µM
# [30] = second compound 10 µM, first compound 1 µM
# 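Note: spheroids exposed to compounds for seven days.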
# 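Throughout, for viability, T/C: 100% = DMSO vehicle control viability.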
structure (smiles),measurement,setting,value
O=c1[nH]cc(F)c(=O)[nH]1 + COC1C(OC(N)=O)C(O)C(Oc2ccc3c(O)c(NC(=O)c4ccc(O)c(CC=C(C)C)c4)c(=O)oc3c2C)OC1(C)C,IC50,[1],> 10000 nM
same,IC50,[2],> 10000 nM
same,IC50,[3],> 10000 nM
same,IC50,[4],> 10000 nM
same,IC50,[5],> 10000 nM
same,IC50,[6],> 10000 nM
same,"viability, T/C",[7],95.8%
same,"viability, T/C",[8],101%
same,"viability, T/C",[9],111%
same,"viability, T/C",[10],103%
same,"viability, T/C","second compound 0.0316 µM, first compound 3.16 µM",103%
same,"viability, T/C","second compound 0.0316 µM, first compound 10 µM",107%
same,"viability, T/C",[11],106%
same,"viability, T/C",[12],107%
same,"viability, T/C",[13],108%
same,"viability, T/C",[14],106%
same,"viability, T/C","second compound 0.1 µM, first compound 3.16 µM",112%
same,"viability, T/C","second compound 0.1 µM, first compound 10 µM",97.2%
same,"viability, T/C",[15],114%
same,"viability, T/C",[16],106%
same,"viability, T/C",[17],112%
same,"viability, T/C",[18],99.5%
same,"viability, T/C","second compound 0.316 µM, first compound 3.16 µM",109%
same,"viability, T/C","second compound 0.316 µM, first compound 10 µM",96.4%
same,"viability, T/C",[19],104%
same,"viability, T/C",[20],101%
same,"viability, T/C",[21],108%
same,"viability, T/C",[22],101%
same,"viability, T/C","second compound 1 µM, first compound 3.16 µM",97.6%
same,"viability, T/C","second compound 1 µM, first compound 10 µM",96.8%
same,"viability, T/C",[23],109%
same,"viability, T/C",[24],97.7%
same,"viability, T/C",[25],99.2%
same,"viability, T/C",[26],105%
same,"viability, T/C","second compound 3.16 µM, first compound 3.16 µM",106%
same,"viability, T/C","second compound 3.16 µM, first compound 10 µM",97.9%
same,"viability, T/C",[27],99.6%
same,"viability, T/C",[28],97.1%
same,"viability, T/C",[29],105%
same,"viability, T/C",[30],101%
same,"viability, T/C","second compound 10 µM, first compound 3.16 µM",98.3%
same,"viability, T/C","second compound 10 µM, first compound 10 µM",101%
COc1cccc2c1C(=O)c1c(O)c3c(c(O)c1C2=O)CC(O)(C(=O)CO)CC3OC1CC(N)C(O)C(C)O1 (stereo unspecified),"viability, T/C",compound 0.0316 µM,87.5% and 98.1% and 92.7%
same,"viability, T/C",compound 0.1 µM,96.2% and 87.2% and 90.7%
same,"viability, T/C",compound 0.316 µM,95% and 96.7% and 101%
same,"viability, T/C",compound 1 µM,71.2% and 89.7% and 82.5%
same,"viability, T/C",compound 3.16 µM,66% and 74% and 68.7%
same,"viability, T/C",compound 10 µM,57.1% and 69.8% and 53.8%
same,IC50,curve of compound,> 10000 nM
CCc1c2c(nc3ccc(O)cc13)-c1cc3c(c(=O)n1C2)COC(=O)[C@]3(O)CC + COC1C(OC(N)=O)C(O)C(Oc2ccc3c(O)c(NC(=O)c4ccc(O)c(CC=C(C)C)c4)c(=O)oc3c2C)OC1(C)C,IC50,[1],976 nM
same,IC50,[2],893 nM
same,IC50,[3],> 1000 nM
same,IC50,[4],985 nM
same,IC50,[5],809 nM
same,IC50,[6],656 nM
same,"viability, T/C","second compound 0.0316 µM, first compound 0.00316 µM",97.5%
same,"viability, T/C","second compound 0.0316 µM, first compound 0.01 µM",89%
same,"viability, T/C",[7],82.6%
same,"viability, T/C",[8],78.9%
same,"viability, T/C",[9],68.2%
same,"viability, T/C",[10],48.1%
same,"viability, T/C","second compound 0.1 µM, first compound 0.00316 µM",102%
same,"viability, T/C","second compound 0.1 µM, first compound 0.01 µM",91.4%
same,"viability, T/C",[11],86.9%
same,"viability, T/C",[12],78.4%
same,"viability, T/C",[13],68.4%
same,"viability, T/C",[14],46.9%
same,"viability, T/C","second compound 0.316 µM, first compound 0.00316 µM",107%
same,"viability, T/C","second compound 0.316 µM, first compound 0.01 µM",94.4%
same,"viability, T/C",[15],78.8%
same,"viability, T/C",[16],78.3%
same,"viability, T/C",[17],68.8%
same,"viability, T/C",[18],50.5%
same,"viability, T/C","second compound 1 µM, first compound 0.00316 µM",97.3%
same,"viability, T/C","second compound 1 µM, first compound 0.01 µM",97.5%
same,"viability, T/C",[19],81.7%
same,"viability, T/C",[20],78.9%
same,"viability, T/C",[21],69.1%
same,"viability, T/C",[22],48.4%
same,"viability, T/C","second compound 3.16 µM, first compound 0.00316 µM",97%
same,"viability, T/C","second compound 3.16 µM, first compound 0.01 µM",90.9%
same,"viability, T/C",[23],87.7%
same,"viability, T/C",[24],75.8%
same,"viability, T/C",[25],63.2%
same,"viability, T/C",[26],47%
same,"viability, T/C","second compound 10 µM, first compound 0.00316 µM",98.7%
same,"viability, T/C","second compound 10 µM, first compound 0.01 µM",84.6%
same,"viability, T/C",[27],85.7%
same,"viability, T/C",[28],74.5%
same,"viability, T/C",[29],64.2%
same,"viability, T/C",[30],42%
